According to patent US8865704B2, “Wnt pathway antagonists” (Siena Biotech S.p.A., priority 2009, dated 2014):
pIC50: −log10 of the molar value.

Legend:
[1] = test system: Wnt/β-catenin pathway; assay: Wnt reporter assay (TCF-Luciferase, Firefly) in DBTRG-05MG cells; type: cell-based; conditions: Homo sapiens, 24 hours after compound addition
In short: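 DBTRG-05MG cells carrying a 4×TCF-driven firefly luciferase reporter, kept under Zeocin or Zeocin plus Hygromicin selection. Compounds added 36 hours after plating at 8 points from 60 μM to 0.185 μM (0.6% DMSO), triplicate, for 24 hours. Firefly and Renilla luminescence each expressed as % of control; IC50 from four-parameter sigmoid fit.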

[2] = test system: DBTRG cells; assay: Soft agar anchorage independent assay; type: cell-based; conditions: 504 h, colonies scored 3 weeks later, read-out: 1050 value in the soft agar assay
Experimental: The pharmacological activity of the compounds of the invention may be tested in vitro for growth inhibition against tumour cell lines. Such cell lines may, for example be representative of glioblastoma (such as DBTRG-05MG), or colorectal (for example DLD-1, HCT116) cancer. The different genetic background of the cancer cell will facilitate to understand to which level of the pathway the compounds work. If the cells harbour a truncated APC allele, the destruction complex activity is affected; if cells carry a gain of function mutation in the β-catenin gene, which prevents β-catenin protein degradation, this leads to constitutive activation of downstream genes. There are many assays available for testing the growth inhibition.
Soft Agar Anchorage Independent Assay
DBTRG cells were seeded into a 24-well format in the presence of carrier alone or compound (0.6% DMSO (v/v)). Each well is composed of two agar layers: the bottom layer consists of 0.6% Agar while the top has 0.35% Agar plus cells and compound. Cells (2500 per well) were incubated with 7 points dilution compound the day of the plating and the colonies were scored 3 weeks later after o/n staining with MTT solution. Imaging and counting of the colonies was done with the GelCount™ instrument (Oxford Optronix, UK). For IC50 determination the data were expressed as % of control, values were calculated using XLFit version 4.2, with a four parameters sigmoid function (XLFit model 205).

| SMILES | pIC50 [1] | pIC50 [2] |
| --- | --- | --- |
| COCC(=O)N1CCN(C(=O)[C@H]2CC[C@H](Cn3c(=O)c4cc(OC)ccc4n(C)c3=O)CC2)CC1 [Example 66] | 4.52 to 6.52 | 4.52 to 6.05 |
| O=C(C1CCC(Cn2c(=O)[nH]c3ccccc3c2=O)CC1)N1CCN(c2ccccc2)CC1 (stereo not shown) [Example 18] | 4.52 to 6.52 | 4.52 to 6.05 |
| O=c1[nH]c2ccccc2c(=O)n1C[C@H]1CC[C@H](C(=O)N2CCN(c3ccc(F)cc3)CC2)CC1 [Example 20] | 4.52 to 6.52 | 4.52 to 6.05 |
| O=C(c1ccco1)N1CCN(C(=O)C2CCC(Cn3c(=O)[nH]c4ccccc4c3=O)CC2)CC1 (stereo not shown) [Example 48] | 4.52 to 6.52 | 4.52 to 6.05 |
| COc1ccccc1N1CCN(C(=O)[C@H]2CC[C@H](Cn3c(=O)[nH]c4ccccc4c3=O)CC2)CC1 [Example 21] | 4.52 to 6.52 | 4.52 to 6.05 |
| COc1ccc2[nH]c(=O)n(C[C@H]3CC[C@H](C(=O)N4CCN(C(=O)[C@H]5CCCO5)CC4)CC3)c(=O)c2c1 [Example 109] | 4.52 to 6.52 | 4.52 to 6.05 |
| CC(C)C(=O)N1CCN(C(=O)[C@H]2CC[C@H](Cn3c(=O)[nH]c4ccccc43)CC2)CC1 [Example 58] | 4.52 to 6.52 | 4.52 to 6.05 |
| O=C(c1cccs1)N1CCN(C(=O)[C@H]2CC[C@H](Cn3c(=O)[nH]c4ccccc4c3=O)CC2)CC1 [Example 37] | 4.52 to 6.52 | 4.52 to 6.05 |
| O=c1[nH]c2ccccc2c(=O)n1C[C@H]1CC[C@H](C(=O)N2CCN(c3cnccn3)CC2)CC1 [Example 57] | 4.52 to 6.52 | 4.52 to 6.05 |
| COC(=O)N1CCN(C(=O)[C@H]2CC[C@H](Cn3c(=O)[nH]c4ccc(OC)cc4c3=O)CC2)CC1 [Example 116] | 4.52 to 6.52 | 4.52 to 6.05 |

Second part, the compound after the results:

| pIC50 [1] | pIC50 [2] | SMILES |
| --- | --- | --- |
| 4.52 to 6.52 | 4.52 to 6.05 | COc1ccc2[nH]c(=O)n(C[C@H]3CC[C@H](C(=O)N4CCN(C(=O)C5CC5)CC4)CC3)c(=O)c2c1 [Example 75] |
| 4.52 to 6.52 | 4.52 to 6.05 | Cc1ccc2c(n1)n(C[C@H]1CC[C@H](C(=O)N3CCN(C(=O)C4CC4)CC3)CC1)c(=O)n2C [Example 169] |
| 4.52 to 6.52 | 4.52 to 6.05 | O=C(C1CC1)N1CCN(C(=O)[C@H]2CC[C@H](Cn3c(=O)c4ccccc4n(CCF)c3=O)CC2)CC1 [Example 79] |
| 4.52 to 6.52 | 4.52 to 6.05 | COc1ccc2c(c1)c(=O)n(C[C@H]1CC[C@H](C(=O)N3CCN(C(=O)C4CC4)CC3)CC1)c(=O)n2C [Example 78] |
| 4.52 to 6.52 | 4.52 to 6.05 | COc1ccc2c(c1)n(C[C@H]1CC[C@H](C(=O)N3CCN(C(=O)C4CC4)CC3)CC1)c(=O)n2C [Example 135] |
| 4.52 to 6.52 | 4.52 to 6.05 | COC(=O)N1CCN(C(=O)[C@H]2CC[C@H](Cn3c(=O)c4cc(OC)ccc4n(C)c3=O)CC2)CC1 [Example 175] |
| 4.52 to 6.52 | 4.52 to 6.05 | O=C(C1CCC1)N1CCN(C(=O)[C@H]2CC[C@H](Cn3c(=O)[nH]c4ccccc4c3=O)CC2)CC1 [Example 60] |
